Results on one molecule are retold here after ChEMBL document CHEMBL5257040, “Discovery of VU2957 (Valiglurax): An mGlu4 Positive Allosteric Modulator Evaluated as a Preclinical Candidate for the Treatment of Parkinson's Disease” (ACS Med Chem Lett, 2019).

For this data set, the target named is Aryl hydrocarbon receptor (Rattus norvegicus, UniProt P41738). As to the kind of experiment: Activation of rat AhR.
Aryl hydrocarbon receptor, sequence (P41738 whole entry): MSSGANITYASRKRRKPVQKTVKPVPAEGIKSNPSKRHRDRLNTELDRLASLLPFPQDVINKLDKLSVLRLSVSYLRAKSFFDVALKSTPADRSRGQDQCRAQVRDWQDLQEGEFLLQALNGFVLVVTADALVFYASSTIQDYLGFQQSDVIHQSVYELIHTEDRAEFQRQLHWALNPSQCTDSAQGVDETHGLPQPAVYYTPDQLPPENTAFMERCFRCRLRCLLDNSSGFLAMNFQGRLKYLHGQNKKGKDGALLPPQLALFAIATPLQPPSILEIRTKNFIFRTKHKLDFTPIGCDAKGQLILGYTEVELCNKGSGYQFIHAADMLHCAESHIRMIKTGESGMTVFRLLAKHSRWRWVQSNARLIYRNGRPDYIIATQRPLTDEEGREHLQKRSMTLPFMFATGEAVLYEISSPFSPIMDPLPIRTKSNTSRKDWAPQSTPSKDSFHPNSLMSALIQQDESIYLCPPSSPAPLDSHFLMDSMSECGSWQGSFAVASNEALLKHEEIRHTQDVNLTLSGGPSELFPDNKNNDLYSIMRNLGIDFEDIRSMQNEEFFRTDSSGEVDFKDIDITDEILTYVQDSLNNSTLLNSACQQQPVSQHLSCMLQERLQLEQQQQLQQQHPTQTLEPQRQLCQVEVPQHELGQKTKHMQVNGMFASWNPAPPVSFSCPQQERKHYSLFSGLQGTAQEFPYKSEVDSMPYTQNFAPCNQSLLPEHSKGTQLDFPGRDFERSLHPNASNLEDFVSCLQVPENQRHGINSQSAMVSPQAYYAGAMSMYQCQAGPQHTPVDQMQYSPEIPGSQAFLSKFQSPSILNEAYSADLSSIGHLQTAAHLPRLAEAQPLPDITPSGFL

On to `FC(F)(F)c1nccc2cc(Nc3n[nH]c4ncccc34)ccc12`, for which the Activity result is “Not Active”.
